In ChEMBL document CHEMBL5370554, “Discovery of a first-in-class Aurora A covalent inhibitor for the treatment of triple negative breast cancer” (Eur J Med Chem, 2023):
pIC50: −log10 of the molar value. Calls of active or inactive are those of the source. No cut-off for these calls is given here.

Experiments:
MDA-MB-231 [1] = assay: Induction of cell cycle arrest in human MDA-MB-231 cells assessed as accumulation at G2/M phase at 1.25 to 5 uM incubated for 24 hrs by PI staining based flow cytometry; assay type: functional; settings: dose 1.25-5 µM
MDA-MB-231 [2] = assay: Induction of apoptosis in human MDA-MB-231 cells assessed as necrotic cells at 2.5 uM incubated for 24 hrs by Annexin V-FITC staining based flow cytometry (Rvb= 1.67%); assay type: functional
[3] = target: Aurora kinase B (Homo sapiens) (UniProt Q96GD4); assay: Binding affinity to Aurora B in human MDA-MB-231 cells assessed as thermal stability at 46 to 62 degreeC at 1 uM incubated for 1 hrs by […] analysis; assay type: cell-based
Aurora kinase A [4] = target: T1, Aurora kinase A (Homo sapiens, UniProt O14965); assay: Inhibition of recombinant human Aurora A (1 to 403 residues) expressed in Escherichia coli using STK-substrate 2-biotin as substrate incubated for 40 mins in presence of 7.2uM ATP by HTRF assay
T1 sequence (O14965 whole entry): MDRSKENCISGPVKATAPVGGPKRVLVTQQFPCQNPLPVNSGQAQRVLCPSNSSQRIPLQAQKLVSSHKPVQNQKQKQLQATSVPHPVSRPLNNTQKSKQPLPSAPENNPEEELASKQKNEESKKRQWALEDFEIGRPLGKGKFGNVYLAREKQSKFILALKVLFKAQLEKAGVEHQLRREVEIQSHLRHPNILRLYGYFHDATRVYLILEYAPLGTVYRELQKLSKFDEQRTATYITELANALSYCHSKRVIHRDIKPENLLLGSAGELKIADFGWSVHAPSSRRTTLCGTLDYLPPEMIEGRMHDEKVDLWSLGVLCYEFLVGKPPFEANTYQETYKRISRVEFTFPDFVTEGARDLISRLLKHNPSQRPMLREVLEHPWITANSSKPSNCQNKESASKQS

Aurora kinase A [5] = target: T1, Aurora kinase A; assay: Inhibition of recombinant human Aurora A (1 to 403 residues) expressed in Escherichia coli using STK-substrate 2-biotin as substrate incubated for 15 mins in presence of 2.4uM ATP by HTRF assay

Sequence of Aurora kinase B (Homo sapiens) (Q96GD4 whole entry, the tested form may be a part): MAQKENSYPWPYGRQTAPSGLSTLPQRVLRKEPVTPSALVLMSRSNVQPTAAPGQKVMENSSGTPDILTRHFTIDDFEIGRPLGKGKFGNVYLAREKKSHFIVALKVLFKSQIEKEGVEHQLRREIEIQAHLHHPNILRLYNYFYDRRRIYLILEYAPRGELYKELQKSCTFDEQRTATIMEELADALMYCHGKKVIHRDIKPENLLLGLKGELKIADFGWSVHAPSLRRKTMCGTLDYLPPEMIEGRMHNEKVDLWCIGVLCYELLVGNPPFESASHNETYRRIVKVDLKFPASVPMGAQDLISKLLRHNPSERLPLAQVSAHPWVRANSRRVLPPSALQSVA

For `C=CC(=O)Nc1ccc(-c2nc(Nc3cc(C)[nH]n3)c3ccc(N4CCN(C)CC4)cc3n2)cc1`, the Activity (MDA-MB-231 [1]) was “Dose-Dependent Effect”, the Activity (MDA-MB-231 [2]) was 1.14% and the Activity [3] was “inactive”. It also gave a pIC50 (Aurora kinase A [4]) of 8.29 and a pIC50 (Aurora kinase A [5]) of 8.40.
